Assay results taken from US8486398B2, “Anticoagulant antidotes comprising antibodies that bind dabigatran and/or related compounds” (Boehringer Ingelheim International GmbH, priority 2010, dated 2013).
Values joined by “and” are separate entries in the source; they are usually repeats but may differ in a detail not shown here. Equal entries are not always repeated. Where two headings read alike, the source gives them in different places.

Columns and labels:
[1] = compared with dabigatran; cited from earlier work
[2] = target: thrombin (Bos taurus, UniProt P00735)
Procedure: Briefly human plasma is obtained by taking whole blood into 3.13% sodium citrate. This is then centrifuged to obtain platelet free plasma and transferred to a separate tube and frozen until required on the day of the assay. Plasma is thawed at 37° C. on the day of the assay.
The thrombin clotting time is performed as follows. First thrombin is diluted to manufacturer's specification (3 IU/mL thrombin) in the buffer provided (Dade Behring Test kit) and prewarmed to 37° C. It is used within 2 hrs of being prepared. All assays were performed on a commercially available CL4 clotting machine (Behnk Electronics, Norderstadt, Germany). Fifty μL of plasma is pipetted into provided cuvettes with a magnetic stirrer and allowed to stir for 2 min in the well preheated to 37° C. in the CL4 machine. At this point 100 μL of the thrombin solution is added and the time required for the plasma sample to clot is recorded automatically by the CL4. Dabigatran is preincubated for 5 min in plasma in the provided cuvettes, before adding thrombin and starting the measurement. If antibody is also tested (up 50 μL of stock solution), there is a further 5 minute incubation at 37° C. before beginning clotting (i.e. 10 min total incubation with dabigatran, 5 min total incubation with antibody and then clotting is initiated with thrombin).

| SMILES | prolongation of the activated partial thromboplastin time [1] | thrombin clotting time ([2]; 200 nM dabigatran preincubated with human plasma, baseline 10.9-11 seconds) | elevation in clotting time over baseline ([2]; 200 nM dabigatran, human plasma) [fold] | increase in clotting time over baseline ([2]; 500 nM dabigatran, human plasma) [fold] | thrombin clotting time ([2]; 500 nM dabigatran, human plasma, baseline 10.9 seconds) [s] | concentration dependence of thrombin clotting time ([2]; increasing concentrations of dabigatran, human plasma) |
| --- | --- | --- | --- | --- | --- | --- |
| Cn1c(CNc2ccc(C(=N)N)cc2)nc2cc(C(=O)N(CCC(=O)OC3OC(C(=O)O)C(O)C(O)C3O)c3ccccn3)ccc21 (stereo not drawn) [1-O-acylglucuronide] | equipotent prolongation of the activated partial thromboplastin time compared with dabigatran | – | – | – | – | – |
| Cn1c(CNc2ccc(C(=N)N)cc2)nc2cc(C(=O)N(CCC(=O)O)c3ccccn3)ccc21 [dabigatran, N-[2-(4-Amidinophenylaminomethyl)-1-methyl-1H-benzimidazol-5-ylcarbonyl]-N-(2-pyridyl)-beta-alanine] | – | 51 s and 63.7 s | ~5 | ~10 | 111.7 | concentration-dependent increase in the thrombin clotting time |
